# Reference: publication PMC10041521, “Fluorescent Activity-Based Probe To Image and Inhibit Factor XIa Activity in Human Plasma” (Journal of Medicinal Chemistry, 2023)
# Several values for one entry are separate records, joined by “and”; a condition that tells them apart may be missing. Equal entries are not always repeated.
# What was measured:
# Type in all cases: biochemical
# fXIa [1] = biological target: T1, fXIa (Homo sapiens, UniProt P03951); assay: Inhibition kinetics (kobs/I) of inhibitor and fluorescent ABP; design: complete conversion of the single chain zymogen to the two-chain active form; made in house; host or cells: HEK293 cells expressing EBNA (pCEP4 vector); conditions: pseudo-first-order, ABP/inhibitor 308 nM to 50 μM, 10 nM enzyme, substrate 100 μM SMX1, 37 °C, 30 min, corrected for substrate KM; mean ± s.d., n = 3; SD
# T1 sequence (P03951 388-625 limits assumed): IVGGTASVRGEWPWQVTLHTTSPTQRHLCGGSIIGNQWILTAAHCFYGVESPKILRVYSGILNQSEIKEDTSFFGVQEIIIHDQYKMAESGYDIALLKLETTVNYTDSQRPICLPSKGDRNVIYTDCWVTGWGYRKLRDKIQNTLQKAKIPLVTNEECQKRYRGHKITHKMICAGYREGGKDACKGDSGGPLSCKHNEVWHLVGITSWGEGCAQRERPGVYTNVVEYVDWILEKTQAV
# T1 sequence (P03951 19-387 partner limits assumed): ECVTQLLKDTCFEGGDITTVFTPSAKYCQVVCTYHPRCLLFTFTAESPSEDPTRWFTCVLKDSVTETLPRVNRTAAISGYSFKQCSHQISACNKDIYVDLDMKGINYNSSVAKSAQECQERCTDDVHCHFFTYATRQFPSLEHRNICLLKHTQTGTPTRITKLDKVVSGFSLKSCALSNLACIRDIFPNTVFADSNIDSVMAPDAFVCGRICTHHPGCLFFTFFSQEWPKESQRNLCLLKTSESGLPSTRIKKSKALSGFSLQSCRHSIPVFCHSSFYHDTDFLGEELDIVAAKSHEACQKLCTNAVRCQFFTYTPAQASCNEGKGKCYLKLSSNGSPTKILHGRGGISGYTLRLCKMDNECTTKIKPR
# Protocol: (§1) All kinetic assays were performed using a spectrofluorometer (Molecular Devices SpectraMax Gemini XPS) on 96-well, white, flat bottom, nontreated plates (Corning). The parameters were as follows: excitation/emission wavelength, 355/460 nm (cutoff, 455 nm); varying concentrations of substrates, ABPs, inhibitor, and enzymes. The assay buffer (20 mM Tris-base, 150 mM NaCl, 5 mM CaCl2, pH 7.4) was prepared at room temperature, and the enzyme kinetic studies were performed at 37 °C. All enzymes were preincubated in assay buffer for 15 min at 37 °C before addition to the wells. Each assay was repeated at least twice, and the data represent the average of these repetitions. The obtained results were analyzed using SoftMax (Molecular Devices), GraphPad Prism, and Microsoft Excel software.
# (§2) The kobs/I parameters for APC, thrombin, fXa, and fXIa were measured under pseudo-first-order conditions. Inhibitor and ABP were serially diluted in assay buffer until the seventh well to obtain concentrations ranging from 308 nM to 50 μM. […] Next, 60 μL of APC, thrombin, fXa, or fXIa (at a concentration of 10 nM) preincubated at 37 °C was added, and the fluorescence increase over time was measured (λex = 355 nm, λem = 460 nm) for 30 min. The kobs/I parameters were calculated in GraphPad Prism and Microsoft Excel software.[41]
# fXIa [2] = biological target: T1, fXIa; assay: Labeling of purified coagulation factors with ABPs, SDS-PAGE and blot; design: complete conversion of the single chain zymogen to the two-chain active form; made in house; host or cells: HEK293 cells expressing EBNA (pCEP4 vector); conditions: 200 nM fXIa preincubated with 5 μM inhibitor for 60 min, then probe 1:1, 30 min
# Protocol: To determine biotin-labeled ABPs selectivity, four purified coagulation factors (APC, thrombin, fXa, and fXIa) with a constant concentration of 200 nM were incubated separately with each probe (the probe/enzyme ratio was 1) in assay buffer for 30 min at 37 °C. Each enzyme was incubated with each probe in a volume of 40 μL followed by reduction with 20 μL of 3 × SDS/DTT for 5 min at 95 °C. The first well was loaded with 0.5 μL of the protein marker PageRuler Prestained Protein Ladder (Thermo Scientific), and then 10 μL of each sample was run on a 12% (w/v) 15-well gel. SDS–PAGE separation was performed at 200 V for 39 min followed by a wet tank transfer to a nitrocellulose membrane (0.2 μm, Bio-Rad) at 10 V for 60 min. The membrane was blocked with 2.5% BSA in TBS-T (Tris-buffered saline with 0.1% (v/v) Tween 20) for 60 min at room temperature. Next, the membrane was incubated with fluorescent streptavidin Alexa Fluor 647 conjugate (dilution 1:10,000 in TBS-T with 1% BSA) for 60 min. The biotin-labeled ABPs were detected at 658 nm using an Azure Biosystems Sapphire Biomolecular Imager and Azure Spot Analysis software.
# For fluorescently labeled probe sample preparation, electrophoresis and membrane transfer were performed as described above. When testing the inhibitor utility, 200 nM fXIa was incubated with inhibitor (final inhibitor concentration 5 μM) for 60 min prior to probe addition. After the membrane was blocked with 2.5% BSA in TBS-T (60 min), the labeled proteins were directly imaged with a […] laser using an Azure Biosystems Sapphire Biomolecular Imager and Azure Spot Analysis software.
# fXa = biological target: T2, fXa (Homo sapiens, UniProt P00742); assay: Inhibition kinetics (kobs/I) of inhibitor and fluorescent ABP; conditions: pseudo-first-order, ABP/inhibitor 308 nM to 50 μM, 10 nM enzyme, substrate 50 μM SMII18, 37 °C, 30 min; mean ± s.d., n = 3; SD
# T2 construct: from tissue; host or cells: fresh frozen plasma
# T2 sequence (P00742 235-488 limits assumed): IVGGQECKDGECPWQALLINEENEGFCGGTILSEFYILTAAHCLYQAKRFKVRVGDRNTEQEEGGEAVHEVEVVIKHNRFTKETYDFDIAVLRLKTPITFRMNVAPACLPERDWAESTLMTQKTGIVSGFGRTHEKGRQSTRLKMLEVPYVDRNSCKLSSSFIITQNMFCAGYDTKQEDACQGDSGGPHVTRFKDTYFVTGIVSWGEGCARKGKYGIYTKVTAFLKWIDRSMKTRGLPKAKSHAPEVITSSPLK
# T2 sequence (P00742 41-179 partner limits assumed): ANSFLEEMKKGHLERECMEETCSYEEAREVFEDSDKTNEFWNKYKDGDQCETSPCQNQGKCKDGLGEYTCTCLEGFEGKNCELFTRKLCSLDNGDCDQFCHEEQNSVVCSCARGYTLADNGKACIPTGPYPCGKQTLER
# Protocol: (§3) Protein C, factor X, and prothrombin were purified from fresh frozen plasma and then activated as previously described.[33]
# as §1
# as §2, with “conditions.” for “conditions. Inhibitor and ABP were serially diluted in assay buffer until the seventh well to obtain concentrations ranging from 308 nM to 50 μM.”
# APC = biological target: T3, APC (Homo sapiens, UniProt P04070); assay: as above; conditions: pseudo-first-order, ABP/inhibitor 308 nM to 50 μM, 10 nM enzyme, substrate 154 μM SMA5, 37 °C, 30 min; mean ± s.d., n = 3; SD
# T3 construct: from tissue; host or cells: fresh frozen plasma
# T3 sequence (P04070 212-461 limits assumed): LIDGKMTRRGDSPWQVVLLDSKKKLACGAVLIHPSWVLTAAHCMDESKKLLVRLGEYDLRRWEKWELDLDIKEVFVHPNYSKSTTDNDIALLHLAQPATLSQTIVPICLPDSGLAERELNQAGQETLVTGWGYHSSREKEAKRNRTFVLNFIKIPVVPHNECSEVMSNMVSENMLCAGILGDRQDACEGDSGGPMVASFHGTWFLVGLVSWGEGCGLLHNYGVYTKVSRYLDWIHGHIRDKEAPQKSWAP
# T3 sequence (P04070 43-197 partner limits assumed): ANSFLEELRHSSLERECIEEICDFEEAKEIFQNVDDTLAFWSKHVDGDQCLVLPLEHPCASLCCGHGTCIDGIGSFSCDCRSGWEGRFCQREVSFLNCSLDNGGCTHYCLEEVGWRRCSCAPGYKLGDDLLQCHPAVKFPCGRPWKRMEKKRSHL
# Protocol: as §3, §1
# as §2, with “conditions.” for “conditions. Inhibitor and ABP were serially diluted in assay buffer until the seventh well to obtain concentrations ranging from 308 nM to 50 μM.”
substance,measurement,setting,value
"Ac-Tyr(2,6-Cl2-Z)-Nle-Glu(Bzl)-ArgP(OPh)2 [I-SMXI5]",kobs/I fXIa,fXIa [1],"54,700 ± 2,800 M^-1 s^-1 and 54,700 ± 2800 M^-1 s^-1"
same,effect of preblocking fXIa on P-SMXI52 labeling,fXIa [2],completely inhibited the fluorescent signal
same,kobs/I fXa,fXa,100 ± 13 M⁻¹ s⁻¹
same,kobs/I APC,APC,"1,570 ± 20 M^-1 s^-1"
